Data published in US8278338B2 (priority 2004, dated 2012).

system: rat; test: Formalin test in the rat (phase 2, chronic pain component); format: in vivo; details: 4.64 mg/kg i.v., phase 2
Method: The formalin test (Dubuisson, D. and Dennis, S. G., 1977, Pain, 4, 161-174) represents a model for acute and chronic pain. By means of a single formalin injection into the dorsal side of a rear paw, a biphase nociceptive reaction was induced in freely mobile test animals; the reaction was assessed by observing three behaviour patterns which are clearly distinguishable from one another. The reaction is two-phase: phase 1=immediate reaction (duration up to 10 minutes; shaking of the paw, licking), phase 2=late reaction (after a rest phase; likewise shaking of the paw, licking; duration up to 60 minutes). The first phase reflects a direct stimulation of the peripheral nocisensors with a high spinal nociceptive input or glutamate release (acute pain phase); the second phase reflects a spinal and peripheral hypersensitisation (chronic pain phase). In the studies presented here, the chronic pain component (phase 2) was evaluated.
Formalin was administered subcutaneously in a volume of 50 μl and a concentration of 5% into the dorsal side of the right rear paw of each animal. The specific behavioural changes, such as lifting and shaking of the paw, weight shifting of the animal and biting and licking reactions, were observed and recorded over an observation period of from 21 to 27 minutes after the formalin injection. The various behaviours were combined to give the so-called pain rate (PR) which, based on 3-minute intervals, represents the calculation of a mean nociceptive reaction. The PR was calculated on the basis of a numerical weighting (=in each case factor 1, 2, 3) of the observed behaviours (corresponding to behaviour score 1, 2, 3) and was calculated using the following formula:
The size of the group was 10 animals (n=10).
On the basis of the PR calculations, the activity of the substance was determined in percent as the change relative to a control. The ED50 was determined by means of regression analysis.

Compound	Inhibition of the nociceptive behaviour versus control (% inhibition) [%]
CN(C)CC1Cc2ccccc2C1c1cccnc1 (stereo not shown) [Example 4, dimethyl-(1-pyridin-3-yl-indan-2-ylmethyl)-amine]	−61.60

same assay, conditions: 10 mg/kg i.v., phase 2

Compound	Inhibition of the nociceptive behaviour versus control (% inhibition) [%]
CN(C)CC1=C(c2cccnc2)c2ccccc2SCC1 [Example 15, dimethyl-(5-pyridin-3-yl-2,3-dihydro-benzo[b]thiepin-4-ylmethyl)-amine]	−70.7
CN(C)CC1=C(c2cccnc2)c2ccccc2CC1 [Example 9, dimethyl-(1-pyridin-3-yl-3,4-dihydro-naphthalen-2-ylmethyl)-amine]	−97.0

same assay, conditions: 21.5 mg/kg i.v., phase 2, 21.5 mg/kg

Compound	Inhibition of the nociceptive behaviour versus control (% inhibition) [%]
CN(C)CC1CCSc2ccccc2C1(O)c1cccnc1 (stereo not shown) [Example 13, 4-dimethylaminomethyl-5-pyridin-3-yl-2,3,4,5-tetrahydro-benzo[b]thiepin-5-ol]	−53.6

same assay, conditions: 46.4 mg/kg i.v., phase 2

Compound	Inhibition of the nociceptive behaviour versus control (% inhibition) [%]
CN(C)CC1CCc2ccccc2C1(O)c1cccnc1 (stereo not shown) [Example 8, 2-dimethylaminomethyl-1-pyridin-3-yl-1,2,3,4-tetrahydro-naphthalen-1-ol]	−65.8

same assay, conditions: i.v., phase 2, regression analysis

Compound	Inhibition of the nociceptive behaviour versus control, ED50 value [mg/kg]
CNCC[C@H](Oc1cccc2ccccc12)c1cccs1 [Duloxetin, duloxetin, reference compound]	1.43

biological target: T1, human μ-opiate receptor (Homo sapiens, UniProt P35372); test: Affinity for the human μ-opiate receptor, [3H]-naloxone displacement (SPA) on CHO-K1 receptor membrane preparation; format: binding; details: not given
T1 construct: purchased Perkin Elmer, Zaventem, Belgium RB-HOM; host or cells: CHO-K1 cells
Method: The receptor affinity for the human μ-opiate receptor was determined in a homogeneous batch on microtitre plates. To that end, serial dilutions of the substances to be tested were incubated for 90 minutes at room temperature with a receptor membrane preparation (15-40 μg of protein/250 μl of incubation batch) of CHO-K1 cells, which express the human μ-opiate receptor (RB-HOM receptor membrane preparation from Perkin Elmer, Zaventem, Belgium), in the presence of 1 nmol./l of the radioactive ligand [^3H]-naloxone (NET719, Perkin Elmer, Zaventem, Belgium) and 1 mg of WGA-SPA beads (wheatgerm agglutinin SPA beads from Amersham/Pharmacia, Freiburg, Germany) in a total volume of 250 μl. The incubation buffer used was 50 mmol./l of Tris-HCl supplemented with 50 μM MgCl2 and 0.05% bovine serum albumin. In order to determine non-specific binding, 100 μmol./l of naloxone were additionally added. When the ninety-minute incubation time was complete, the microtitre plates were centrifuged off for 20 minutes at 1000 g and the radioactivity was measured in a β-counter (Microbeta-Trilux, PerkinElmer, Freiburg, Germany). The percentage displacement of the radioactive ligand from its binding to the human μ-opiate receptor at a concentration of the test substances of 1 μmol./l was determined and stated as the percentage inhibition of specific binding. […] Ki values for the test substances were obtained by conversion by means of the Cheng-Prusoff equation (Cheng and Prusoff 1973).

T1 sequence (P35372 whole entry): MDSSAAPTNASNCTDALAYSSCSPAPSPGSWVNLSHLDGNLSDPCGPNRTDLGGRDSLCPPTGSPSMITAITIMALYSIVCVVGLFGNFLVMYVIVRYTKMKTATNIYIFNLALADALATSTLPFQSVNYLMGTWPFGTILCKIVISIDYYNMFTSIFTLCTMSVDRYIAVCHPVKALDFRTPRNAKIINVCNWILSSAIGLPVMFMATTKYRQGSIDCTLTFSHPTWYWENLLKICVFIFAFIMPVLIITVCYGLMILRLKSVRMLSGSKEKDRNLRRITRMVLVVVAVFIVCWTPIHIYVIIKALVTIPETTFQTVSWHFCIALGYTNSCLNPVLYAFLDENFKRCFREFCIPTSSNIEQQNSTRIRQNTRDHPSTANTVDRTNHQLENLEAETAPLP

Compound	Ki [µM]
CN(C)CC1=C(c2cccnc2)c2ccc(F)cc2C1 [Example 19, (6-fluoro-3-pyridin-3-yl-1H-inden-2-ylmethyl)-dimethyl-amine]	0.29
CN(C)CC1=C(c2cccnc2)c2cccc(O)c2CC1 [Example 39, 6-dimethylaminomethyl-5-pyridin-3-yl-7,8-dihydro-naphthalen-1-ol]	0.02

same assay, conditions: 1 μmol./l test substance; inhibition of specific [3H]-naloxone binding

Compound	μ-Opioid receptor affinity (% inhibition at 1 μmol./l) [%]
CN(C)CC1CCSc2ccccc2C1(O)c1cccnc1 (stereo not shown) [Example 13, 4-dimethylaminomethyl-5-pyridin-3-yl-2,3,4,5-tetrahydro-benzo[b]thiepin-5-ol]	−23
COc1cccc2c1CCC(CN(C)C)C2(O)c1cccnc1 (stereo not shown) [Example 37, 2-dimethylaminomethyl-5-methoxy-1-pyridin-3-yl-1,2,3,4-tetrahydro-naphthalen-1-ol]	8
CNCC[C@H](Oc1cccc2ccccc12)c1cccs1 [Duloxetin, duloxetin, reference compound]	−10
COc1cccc2c1CCC(CN(C)C)C2(O)c1cccnc1 (stereo not shown) [Example 36, 2-dimethylaminomethyl-5-methoxy-1-pyridin-3-yl-1,2,3,4-tetrahydro-naphthalen-1-ol]	−14
CN(C)CC1Cc2ccccc2C1(O)c1cccnc1 (single isomer, unassigned) [Example 1, 2-dimethylaminomethyl-1-pyridin-3-yl-indan-1-ol]	1

same assay, conditions: 1.5 h, read-out: μ-Opioid receptor affinity (% inhibition at 1 μmol./l), 1 μmol./l test substance; inhibition of specific [3H]-naloxone binding

Compound	inhibition at 1 µM [%]
CN(C)CC1Cc2ccccc2C1c1cccnc1 (stereo not shown) [Example 4, dimethyl-(1-pyridin-3-yl-indan-2-ylmethyl)-amine]	31

same assay, conditions: Cheng-Prusoff from IC50; [3H]-naloxone 1 nmol./l; read-out: μ-Opioid receptor affinity, Ki

Compound	Ki [µM]
CN(C)CC1=C(c2cccnc2)c2ccccc2SCC1 [Example 15, dimethyl-(5-pyridin-3-yl-2,3-dihydro-benzo[b]thiepin-4-ylmethyl)-amine]	0.32
CN(C)CC1=C(c2cccnc2)c2ccccc2CC1 [Example 9, dimethyl-(1-pyridin-3-yl-3,4-dihydro-naphthalen-2-ylmethyl)-amine]	0.56

biological target: 5-HT reuptake (Rattus norvegicus, UniProt P31652); test: biochemical; details: not given
Excerpt: In order to be able to carry out these in vitro studies, synaptosomes were freshly isolated from areas of rat brain. […] For NA reuptake, these vesicular particles were isolated from the hypothalamus of male rat brains, and for 5HT reuptake, they were isolated from the medulla+pons region.
The IC50 values were obtained with the aid of the “Figure P” computer program (Version 6.0, Biosoft, Cambridge, England). […] The “Ligand” computer program (Version 4, Biosoft, England) was used to show KD values.

Sequence of 5-HT reuptake (P31652 whole entry): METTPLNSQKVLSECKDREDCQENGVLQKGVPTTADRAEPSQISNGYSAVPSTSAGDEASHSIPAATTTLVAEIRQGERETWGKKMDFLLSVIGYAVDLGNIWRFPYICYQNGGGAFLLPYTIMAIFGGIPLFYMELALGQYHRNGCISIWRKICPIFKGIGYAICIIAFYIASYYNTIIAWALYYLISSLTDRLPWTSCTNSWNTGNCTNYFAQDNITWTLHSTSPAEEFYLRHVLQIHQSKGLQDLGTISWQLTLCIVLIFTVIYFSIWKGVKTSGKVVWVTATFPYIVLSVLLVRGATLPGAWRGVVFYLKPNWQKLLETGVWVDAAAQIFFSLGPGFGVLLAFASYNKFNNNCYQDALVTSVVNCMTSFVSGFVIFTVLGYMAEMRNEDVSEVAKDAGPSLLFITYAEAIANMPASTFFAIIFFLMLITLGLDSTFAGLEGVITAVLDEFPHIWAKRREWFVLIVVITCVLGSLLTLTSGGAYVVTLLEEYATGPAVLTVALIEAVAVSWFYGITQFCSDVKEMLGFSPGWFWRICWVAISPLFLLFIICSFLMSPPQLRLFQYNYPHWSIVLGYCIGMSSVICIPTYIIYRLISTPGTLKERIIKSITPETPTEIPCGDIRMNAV

Compound	Ki [µM]
CN(C)CC1=C(c2cccnc2)c2cccc(O)c2CC1 [Example 39, 6-dimethylaminomethyl-5-pyridin-3-yl-7,8-dihydro-naphthalen-1-ol]	0.25

same assay, conditions: 10 μmol./l; rat synaptosomes

Compound	Inhibition of 5-HT reuptake (% inhibition at 10 μmol./l) [%]
COc1cccc2c1CCC(CN(C)C)C2(O)c1cccnc1 (stereo not shown) [Example 37, 2-dimethylaminomethyl-5-methoxy-1-pyridin-3-yl-1,2,3,4-tetrahydro-naphthalen-1-ol]	19
CN(C)CC1Cc2ccccc2C1(O)c1cccnc1 (single isomer, unassigned) [Example 1, 2-dimethylaminomethyl-1-pyridin-3-yl-indan-1-ol]	63

same assay, conditions: rat synaptosomes; Cheng-Prusoff

Compound	Ki [µM]
CN(C)CC1=C(c2cccnc2)c2ccc(F)cc2C1 [Example 19, (6-fluoro-3-pyridin-3-yl-1H-inden-2-ylmethyl)-dimethyl-amine]	0.043

same assay, conditions: read-out: Inhibition of 5-HT reuptake (% inhibition at 10 μmol./l), 10 μmol./l; rat synaptosomes

Compound	inhibition at 10 µM [%]
CN(C)CC1=C(c2cccnc2)c2ccccc2SCC1 [Example 15, dimethyl-(5-pyridin-3-yl-2,3-dihydro-benzo[b]thiepin-4-ylmethyl)-amine]	60
CN(C)CC1CCSc2ccccc2C1(O)c1cccnc1 (stereo not shown) [Example 13, 4-dimethylaminomethyl-5-pyridin-3-yl-2,3,4,5-tetrahydro-benzo[b]thiepin-5-ol]	41
CN(C)CC1Cc2ccccc2C1c1cccnc1 (stereo not shown) [Example 4, dimethyl-(1-pyridin-3-yl-indan-2-ylmethyl)-amine]	86
CN(C)CC1=C(c2cccnc2)c2ccccc2CC1 [Example 9, dimethyl-(1-pyridin-3-yl-3,4-dihydro-naphthalen-2-ylmethyl)-amine]	56
COc1cccc2c1CCC(CN(C)C)C2(O)c1cccnc1 (stereo not shown) [Example 36, 2-dimethylaminomethyl-5-methoxy-1-pyridin-3-yl-1,2,3,4-tetrahydro-naphthalen-1-ol]	33

biological target: T2, NA reuptake (Rattus norvegicus, UniProt Q63380); test: Inhibition of NA reuptake in rat brain synaptosomes (hypothalamus, P2 fraction); format: biochemical; details: not given
T2 construct: isolated from the hypothalamus of male rat brains; from tissue; host or cells: rat brain synaptosomes (P2 fraction), hypothalamus of male rats
Method: In order to be able to carry out these in vitro studies, synaptosomes were freshly isolated from areas of rat brain. A so-called “P2” fraction was used in each case, which was prepared exactly according to the procedure of Gray, E. G. and Whittaker, V. P. (1962, J. Anat. […], 79-88). For NA reuptake, these vesicular particles were isolated from the hypothalamus of male rat brains, and for 5HT reuptake, they were isolated from the medulla+pons region.
IC50 values were obtained thereby which can be converted into inhibitor constants (Ki) according to the “Cheng-Prusoff equation” (Cheng, Y. C. and Prusoff, W. H., 1973, Biochem. Pharmacol. 22, 3099-3108). The IC50 values were obtained with the aid of the “Figure P” computer program (Version 6.0, Biosoft, Cambridge, England). Km values were calculated according to Lineweaver, H. and Burk, D. (1934, J. Am. Chem. Soc. 56, 658-666). The “Ligand” computer program (Version 4, Biosoft, England) was used to show KD values.

T2 sequence (Q63380 1-617): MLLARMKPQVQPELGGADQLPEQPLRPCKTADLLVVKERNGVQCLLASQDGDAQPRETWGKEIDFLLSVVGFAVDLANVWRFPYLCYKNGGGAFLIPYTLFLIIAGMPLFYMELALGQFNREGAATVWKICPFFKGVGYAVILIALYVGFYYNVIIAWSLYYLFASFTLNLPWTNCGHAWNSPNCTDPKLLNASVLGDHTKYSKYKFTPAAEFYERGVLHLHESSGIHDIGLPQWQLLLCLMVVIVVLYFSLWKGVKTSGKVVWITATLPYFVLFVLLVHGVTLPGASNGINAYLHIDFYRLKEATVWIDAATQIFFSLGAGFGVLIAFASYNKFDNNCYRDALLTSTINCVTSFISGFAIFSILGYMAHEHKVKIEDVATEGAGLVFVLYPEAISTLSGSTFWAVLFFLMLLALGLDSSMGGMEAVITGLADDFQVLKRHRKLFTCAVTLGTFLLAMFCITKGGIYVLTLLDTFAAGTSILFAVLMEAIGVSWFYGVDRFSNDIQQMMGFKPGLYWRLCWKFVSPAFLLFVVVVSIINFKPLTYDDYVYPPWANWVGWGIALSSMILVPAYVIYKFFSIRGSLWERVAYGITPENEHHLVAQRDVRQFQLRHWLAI

Compound	Inhibition of NA reuptake (% inhibition at 10 μmol./l) [%]
COc1cccc2c1CCC(CN(C)C)C2(O)c1cccnc1 (stereo not shown) [Example 37, 2-dimethylaminomethyl-5-methoxy-1-pyridin-3-yl-1,2,3,4-tetrahydro-naphthalen-1-ol]	57

same assay, conditions: 10 μmol./l

Compound	inhibition at 10 µM [%]
CN(C)CC1=C(c2cccnc2)c2ccccc2SCC1 [Example 15, dimethyl-(5-pyridin-3-yl-2,3-dihydro-benzo[b]thiepin-4-ylmethyl)-amine]	36
CN(C)CC1=C(c2cccnc2)c2ccc(F)cc2C1 [Example 19, (6-fluoro-3-pyridin-3-yl-1H-inden-2-ylmethyl)-dimethyl-amine]	31
CN(C)CC1CCSc2ccccc2C1(O)c1cccnc1 (stereo not shown) [Example 13, 4-dimethylaminomethyl-5-pyridin-3-yl-2,3,4,5-tetrahydro-benzo[b]thiepin-5-ol]	45
CN(C)CC1Cc2ccccc2C1c1cccnc1 (stereo not shown) [Example 4, dimethyl-(1-pyridin-3-yl-indan-2-ylmethyl)-amine]	46
CN(C)CC1=C(c2cccnc2)c2ccccc2CC1 [Example 9, dimethyl-(1-pyridin-3-yl-3,4-dihydro-naphthalen-2-ylmethyl)-amine]	26
CN(C)CC1=C(c2cccnc2)c2cccc(O)c2CC1 [Example 39, 6-dimethylaminomethyl-5-pyridin-3-yl-7,8-dihydro-naphthalen-1-ol]	50
COc1cccc2c1CCC(CN(C)C)C2(O)c1cccnc1 (stereo not shown) [Example 36, 2-dimethylaminomethyl-5-methoxy-1-pyridin-3-yl-1,2,3,4-tetrahydro-naphthalen-1-ol]	49
CN(C)CC1Cc2ccccc2C1(O)c1cccnc1 (single isomer, unassigned) [Example 1, 2-dimethylaminomethyl-1-pyridin-3-yl-indan-1-ol]	33
